Consider six molecules from paper PMC3236741 (PLoS ONE, 2011).

A short description of data set [1]: ^125I-Ang-(1-12) metabolism by plasma membranes from human atrial appendage, HPLC with inline γ-detector. The conditions noted are these: human atrial plasma membrane 50 µg, 1 nmol/L substrate, 15 min pre-incubation, 60 min at 37°C, HPLC γ-detection, mean ± SEM, n = 9.
Description: Membranes were prepared at 4°C in a manner similar to the approaches previously described by our laboratory [52] and by Urata et al. [26] Frozen atrial tissue (50–100 mg) was homogenized at 4°C in 1 mL PBS (pH 7.4) in a Qiagen TissueLyzer (Valencia, CA). The homogenate was centrifuged at low spin (200 g) for 5 min at 4°C to remove the connective tissues and cell debris. The supernatant was transferred into a new tube and centrifuged at 28,000 g for 20 min at 4°C to collect the plasma membrane. The pellet was resuspended in PBS and centrifuged as described above. Finally, the pellet was resuspended in PBS and stored at −80°C till its use for metabolism studies. The concentration of each cardiac membrane preparation is expressed in terms of protein concentration measured by Bradford Reagent using bovine serum albumin (BSA) as the standard; the results were normalized in terms of per mg protein.
For ^125I-Ang-(1-12) metabolism studies, plasma membranes (50 µg per reaction mixture) were preincubated for 15 min under various combinations of RAS and peptidases inhibitors (50 µM each). After preincubation of plasma membranes with the inhibitors, human ^125I-Ang-(1-12) (1 nmol/L; specific activity 3,900 cpm/fmol) was added to the reaction medium and incubated for an additional 60 min at 37°C. At the end of the incubation time, the reaction was stopped by adding equal volume of 1% phosphoric acid, mixed well, and centrifuged at 28,000 g for 20 min to remove the plasma membrane. […] On the day of HPLC analysis, the samples were filtered before separation by reverse-phase high-performance liquid chromatography. We used a linear gradient from 10% to 50% mobile phase B at a flow rate of 0.35 mL/min at ambient temperature. The solvent system consisted of 0.1% phosphoric acid (mobile phase A) and 80% acetonitriles/0.1% phosphoric acid (mobile phase B). The eluted ^125I products were monitored by an in-line flow-through gamma detector (BioScan Inc., Washington, DC). Products were identified by comparison of retention time of synthetic [^125I] standard peptides and the data were analyzed with Shimadzu LCSolution (Kyoto, Japan) acquisition software.
The target in a further data set is T1, chymase (Homo sapiens, UniProt P23946).
T1 construct: hydrolysis of 1 mM N-suc-AAPF-pNA in the plasma membrane of six human atrial tissues; from tissue; host or cells: human left atrial appendage tissue, plasma membrane fraction
T1 sequence (P23946 22-247): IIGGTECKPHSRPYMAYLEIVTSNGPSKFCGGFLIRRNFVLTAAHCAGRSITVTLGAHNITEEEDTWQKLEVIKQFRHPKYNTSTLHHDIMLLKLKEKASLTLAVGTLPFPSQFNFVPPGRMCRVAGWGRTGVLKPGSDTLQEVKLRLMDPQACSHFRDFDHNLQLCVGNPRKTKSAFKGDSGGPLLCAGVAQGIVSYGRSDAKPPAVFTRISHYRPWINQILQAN
The data set is described as follows: Hydrolysis of colorimetric substrate N-suc-AAPF-pNA by human plasma membrane with or without chymostatin. Type of data set: biochemical. The following applies: chymostatin 50 µM; 1 mM N-suc-AAPF-pNA; 50 mM Tris pH 8.0, 1.5 M NaCl, 1% DMSO; 37°C, 0–180 min; absorbance 410 nm; six human atrial tissues. Here is the method: Chymase activity was also monitored by evaluating the hydrolysis of 1 mM N-suc-AAPF-pNA in the plasma membrane of six human atrial tissues. Briefly, all assays were performed in a total reaction volume of 200 µL in the 96-well microtiter plates containing plasma membranes with or without the presence of chymostatin (chymase inhibitor; 50 µM) as described above in 50 mM Tris buffer (pH 8.0) containing 1.5 M NaCl and 1% dimethylsulphoxide. The increase in absorbance at 410 nm was measured at 37°C for different time points (0–180 min) for the released p-nitroaniline. In addition, Ang II formation from ^125I-Ang-(1-12) was also investigated in the absence and in the presence of TEI-F00806 (100 µM; an orally active chymase-specific inhibitor provided by Teijin Pharma, Tokyo, Japan). Briefly, plasma membranes isolated from human atrial tissue (50 µg per reaction mixture) and ^125I-Ang-(1-12) were incubated in the presence or absence of TEI-F00806 (as described above for chymostatin) for 37°C for 60 min. At the end of incubation, samples were analyzed by HPLC for Ang II formation from ^125I-Ang-(1-12).

Data set [2] relates to Ang I induced carotid artery vasoconstriction. The following applies: administration of chymostatin in enalapril-treated SHR rats; ref Becari et al. [30]; cited from earlier work. From the text: A critical role for chymase in accounting for the processing of Ang-(1-12) is reinforced through the corresponding consistency of the chymase activity measured in each of the human samples. Since the atrial tissue employed in these studies was obtained from subjects undergoing cardiac surgery for the treatment of heart rhythm disorders (Table 2), we cannot exclude the possibility that the relatively high chymase activity reflects increased expression of this enzyme in this condition. Although an increase in cardiac chymase activity has been reported in both clinical and experimental forms of h ...

A short description of data set [3]: plasma membrane (50 µg) isolated from human atrial appendage, Minus Lisinopril group. The conditions noted are these: 37°C, up to 60 min.
Data set [4] in a line: plasma membrane (50 µg) isolated from human atrial appendage, Minus Chymostatin group. The following applies: 37°C, up to 60 min.
Data set [5] is described as follows: plasma membrane (50 µg) isolated from human atrial appendage, No RAS inhibitors group. The conditions noted are these: 37°C, up to 60 min.
The nature of data set [6]: plasma membrane (50 µg) isolated from human atrial appendage, All RAS inhibitors group. The conditions noted are these: 37°C, up to 60 min.
In another data set the test system is human leukocyte elastase. The conditions noted are these: cited from earlier work.
The nature of data set [7]: plasma membrane of six human atrial tissues in 50 mM Tris buffer (pH 8.0) containing 1.5 M NaCl and 1% dimethylsulphoxide. The conditions noted are these: 37°C, up to 180 min.
A short description of data set [8]: plasma membrane of six human atrial tissues in 50 mM Tris buffer (pH 8.0) containing 1.5 M NaCl and 1% dimethylsulphoxide, with chymostatin. The following applies: 37°C, up to 180 min.
Data set [9] has as its target protein A purified polyclonal antibody directed to the COOH-terminus of human Ang-(1-12). The data set is described as follows: Binding affinity and cross-reactivity of protein A purified polyclonal Ang-(1-12) antibody (IgG). The conditions noted are these: protein A purified polyclonal antibody (IgG) to human Ang-(1-12); cross-reactivity. Here is the method: Left atrial tissues from human cardiac patient were fixed in 4% paraformaldehyde for 24 h and then transferred into 70% ethanol. After dehydration, the tissues were embedded in paraffin and each section was cut in 5-µm thick sections. Immunohistochemistry was performed using well characterized protein A purified polyclonal antibody directed to the COOH-terminus of full length of human Ang-(1-12) sequence [Asp^1-Arg^2-Val^3-Tyr^4-Ile^5-His^6-Pro^7-Phe^8-His^9-Leu^10-Val^11-Ile^12] (AnaSpec, San Jose, CA). The binding affinity and cross-reactivity of protein A purified antibody (IgG) was checked for human Ang-(1-12) and small Ang peptides [Ang I, Ang II and Ang-(1-7)]. […] The antibody was independently used to detect immunoreactive Ang-(1-12) in human atrial tissue using the avidin-biotin horseradish peroxidase techniques as previously reported by our laboratory, [11]. Briefly, slides were deparaffinized in xylene (15 min), subsequently dipped in ethanol (100%, 95% and 75%, respectively) and washed in double distilled water. The clear slides were incubated in 3% hydrogen peroxide to block the endogenous peroxidase. […]

“Also recorded” adds a separate entry of the source. Marks after values point to notes of the source that are not given here. Peptide text beside a SMILES is read from it.

In the case of `CC[C@H](C)[C@H](NC(=O)[C@@H](NC(=O)[C@H](CC(C)C)NC(=O)[C@H](Cc1c[nH]cn1)NC(=O)[C@H](Cc1ccccc1)NC(=O)[C@@H]1CCCN1C(=O)[C@H](Cc1c[nH]cn1)NC(=O)[C@@H](NC(=O)[C@H](Cc1ccc(O)cc1)NC(=O)[C@@H](NC(=O)[C@H](CCCNC(=N)N)NC(=O)[C@@H](N)CC(=O)O)C(C)C)[C@@H](C)CC)C(C)C)C(=O)O` [Ang-(1-12), angiotensin-(1-12)] (H-DRVYIHPFHLVI-OH), the “Percent of ^125I-Ang-(1-12) parent control remained unmetabolized” value is on record as 98±7% in data set [1] (All RAS inhibitors (plus lisinopril, SCH39370, MLN-4760, chymostatin; 50 µM each)); 31±13 ^a % in data set [1] (Minus chymostatin (all inhibitors except chymase inhibitor; 50 µM each)); 98±5% in data set [1] (Minus lisinopril (all inhibitors except ACE inhibitor; 50 µM each)); 22±10 ^a % in data set [1] (NO RAS inhibitors (only amastatin, bestatin, benzyl succinate, PCMB; 50 µM each)).
Regarding `CC(C)C[C@H](NC(=O)[C@@H](NC(=O)N[C@@H](Cc1ccccc1)C(=O)O)[C@@H]1CCN=C(N)N1)C(=O)N[C@H](C=O)Cc1ccccc1` [chymostatin, Chymostatin], the “hydrolysis of N-suc-AAPF-pNA by human plasma membrane in the presence of inhibitor” value at chymase is recorded as “completely blocked”. For the same molecule, in data set [2], the “inhibition of Ang I induced carotid artery vasoconstriction” value was 80%.
In the case of “H-Asp^1-Arg^2-Val^3-Tyr^4-Ile^5-His^6-Pro^7-Phe^8-His^9-Leu^10-Val^11-Ile^12-OH”, the fragment found entry is listed as “Ang II, minor” in data set [3]; “Ang I, minor” in [4]; “Ang I, minor” in data set [5]; “Ang I, minor; also recorded: Ang II, minor” in data set [6]. Moreover, the cleaved bond result in data set [4] is “Phe8-His9, major”; in data set [5], “Phe8-His9, major”.
In the case of “N-Succinyl-Ala-Ala-Pro-Phe-p-nitroanilide”, the results for the not cleaved result (in the data set with human leukocyte elastase; in data set [8]) were “not hydrolyzed by human leukocyte elastase” and “hydrolysis completely blocked in the presence of chymostatin”, respectively. Further, in data set [7], the fragment found result was “p-nitroaniline”.
Regarding “angiotensin II (DRVYIHPF; Angiotensin-2; UniProt P01019 25-32, looked up) [Ang II, angiotensin peptide, main metabolic product of ^125I-Ang-(1-12)]”, it took 0.28 ± 0.02 nM to reach a half-maximal effect in [9] (EC50).
Take angiotensin-(1-7) [Ang-(1-7)]: the “binding affinity of the antibody (EC50)” value in [9] is listed as “below detection”.

As usually defined, the EC50 is the midpoint of the concentration-response curve. A lower EC50 goes with a more potent agent.
